According to patent publication US4351948A, “Imidazole hydrazone derivatives” (priority 1980, dated 1982):
Read-outs that look alike come from different tables or passages of the source.

What was measured:
[1] = test system: C. albicans; assay: Vaginal candida infection in rats, oral or topical treatment; type: in vivo
Excerpt: Effect of oral or topical administration of HC274 and ketoconazole on vaginal candida infection in rats. Clearance of C. albicans from rat vagina following oral or topical treatment (as percentage of control).
Topical treatment: 1% solution in polyethylene glycol administrated twice daily for 3 days.
Oral treatment: Once daily for 3 days.

[2] = test system: Bacteroides uniformis ATCC 8492; assay: Minimal inhibitory concentration against anaerobic bacteria; details: ATCC8492, 24 h
[3] = test system: candida; assay: Intravenous administration: recovery of viable candida cells from the kidneys of infected mice; type: in vivo; details: 25 mg/ml
[4] = test system: Desulfovibrio desulfuricans API-SW2; assay: Minimal inhibitory concentration against anaerobic bacteria; details: for Minimal Inhibitory Concentration: 24 hours at 37° C.
[5] = test system: Clostridium sporogenes ATCC 19404; assay: as above; type: cell-based; details: ATCC19404, 24 h
[6] = in vivo; details: male mice, 7 day
[7] = test system: Bacteroides fragilis ATCC 23745; assay: Minimal inhibitory concentration against anaerobic bacteria; details: ATCC23745, 24 h
[8] = test system: Desulfovibrio desulfuricans API-CORE; assay: as above; details: 24 h
[9] = test system: B. uniformis ATCC 8492; assay: Antianaerobic activity, MIC by standard broth dilution method (Table II); type: cell-based; details: Bacteroides uniformis, ATCC8492, 24 h, read-out: Minimal Inhibitory Concentration (MIC)
Summary of the method: (§1)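 MIC determined by standard broth dilution against single strains of the anaerobes and T. vaginalis.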

[10] = test system: T. vaginalis ATCC 30001; assay: as above; type: cell-based; details: Trichomonas vaginalis, ATCC30001, 24 h, read-out: Minimal Inhibitory Concentration (MIC)
Summary of the method: as §1

[11] = test system: B. fragilis ATCC 23745; assay: as above; type: cell-based; details: Bacteroides fragilis, ATCC23745, 24 h, read-out: Minimal Inhibitory Concentration (MIC)
Summary of the method: as §1

[12] = test system: C. sporogenes ATCC 19404; assay: as above; type: cell-based; details: Clostridium sporogenes, ATCC19404, 24 h, read-out: Minimal Inhibitory Concentration (MIC)
Summary of the method: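 Minimum inhibitory concentration determined by standard broth dilution against a single Clostridium sporogenes strain under anaerobic test conditions.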

[13] = read-out: Minimal Inhibitory Concentration, Test 1, 24 hours at 37° C.
[14] = read-out: Minimal Inhibitory Concentration, Test 2, 24 hours at 37° C.
[15] = read-out: Minimal Inhibitory Concentration, Test 3, 24 hours at 37° C.

For Cl.Clc1ccc(/C(Cn2ccnc2)=N\Nc2ccc(Cl)cc2Cl)cc1 [HC274, (E)-1-(4-chlorophenyl)-2-(1H-imidazol-1-yl)ethanone, 2,4-dichlorophenylhydrazone, hydrochloride], the “Clearance of C. albicans from rat vagina (as percentage of control)” value (“Clearance … (as percentage of control)” for short) ([1]; oral, 10 mg/kg once daily for 3 days) was 94.3 percentage of control, the “Clearance … (as percentage of control)” value ([1]; oral, 20 mg/kg once daily for 3 days) was 91.3 percentage of control and the “Clearance … (as percentage of control)” value ([1]; topical, 1% solution in polyethylene glycol twice daily for 3 days) was 95.5 percentage of control. The MIC [2, 13] was 2.5 mg/L, the MIC [2, 14] was 2.5 mg/L and the MIC [2, 15] was 5 mg/L. The CFU/g kidney [3] was 7.7 × 10^3 CFU/g kidney, the “CFU/g kidney, % of control” value [3] was 52 % of control and the MIC ([4]; Desulfovibrio desulfuricans, APISW2, 24 h, read-out: Minimal Inhibitory Concentration) was 1 mg/L. For the same compound, the “Minimal Inhibitory Concentration” value ([4]; Test 2) was 1.0 mg/L, the “Minimal Inhibitory Concentration” value ([4]; Test 3) was 1.0 mg/L and the MIC ([5]; Test 1, 24 hours at 37° C.) was 2.5 mg/L. The MIC ([5]; Test 2, 24 hours at 37° C.) was 2.5 mg/L, the MIC ([5]; Test 3, 24 hours at 37° C.) was 7.5 mg/L and the LD50 at 168 h ([6]; mouse, in vivo, iv, read-out: LD50) was 85 mg/kg. For the same compound, the LD12.5 ([6]; p.o.) was 440 mg/kg, the MIC [7, 13] was 2.5 mg/L and the MIC [7, 14] was 5 mg/L. It also gave an MIC [7, 15] of 7.5 mg/L, an MIC [8, 13] of 0.75 mg/L and an MIC [8, 14] of 1 mg/L. For the same compound, the MIC [8, 15] was 1 mg/L, the MIC ([9]; Test 1) was 2.5 mg/L and the MIC ([9]; Test 2) was 2.5 mg/L. The MIC ([9]; Test 3) was 5 mg/L, the MIC ([10]; Test 1) was 5 mg/L and the MIC ([10]; Test 2) was 7.5 mg/L. The MIC ([10]; Test 3) was > 10 mg/L, the MIC ([11]; Test 1) was 2.5 mg/L and the MIC ([11]; Test 2) was 5 mg/L. For the same compound, the MIC ([11]; Test 3) was 7.5 mg/L, the MIC ([12]; Test 1) was 2.5 mg/L and the MIC ([12]; Test 2) was 2.5 mg/L. It also gave an MIC ([12]; Test 3) of 7.5 mg/L.
